Measured values published in patent US9976122B2, “Methods and compositions for generating an immune response by inducing CD40 and pattern recognition receptor adapters” (BAYLOR COLLEGE OF MEDICINE, priority 2008, dated 2018).

Columns and labels:
[1] = tested on: Naïve CD4+CD45RA+ T cells; assay type: cell-based, human; details: restimulated with TTp30 at day 7
[2] = tested on: human SOCS1; experiment: Real time Q-PCR assay for human SOCS1 in DCs; assay type: cell-based; details: stimulus by itself
Source text: Total RNA was purified and reverse transcribed with random hexamers using SuperScript II RTase (Invitrogen, Carlsbad, Calif.). mRNA levels were quantified in DCs by subjecting cDNA to TaqMan PCR analysis using the GeneAmp 5700 Sequence Detection System (Applied Biosystems, Foster City, Calif.). Pre-developed sequence detection reagents (Applied Biosystems) specific for human SOCS1 and 18S rRNA, including forward and reverse primers as well as a fluorogenic TaqMan FAM-labeled hybridization probe, were supplied as mixtures and were used at 1 microliter/20 microliter PCR. Samples were run in duplicates. The level of SOCS1 expression in each sample was normalized to the level of 18S rRNA from the same sample using the comparative 2-delta delta CT method (Livak K J, Schmittgen T D. Analysis of relative gene expression data using real-time quantitative PCR and the 2(-Delta Delta C(T)) Method. Methods. 2001; 25:402-408).
Finally, the induction of the suppressor of cytokine signaling (SOCS1) was evaluated.

[3] = tested on: human DCs; experiment: Cytokine ELISA (IL-12p70, IL-6) of culture supernatants of human monocyte-derived DCs; assay type: cell-based; details: LPS and CD40L-stimulated DCs

## monophosphoryl lipid A [MPL]
[1]
  IFN-gamma production in CD4+ T cells: not induced

## Lipopolysaccharide [LPS]
[2]
  SOCS1 induction in DCs: up-regulated

B1: CD40L: CD40 ligand, a TNF family member that binds to the CD40 receptor (protein)
chain: MIETYNQTSPRSAATGLPISMKIFMYLLTVFLITQMIGSALFAVYLHRRLDKIEDERNLHEDFVFMKTIQRCNTGERSLSLLNCEEIKSQFEGFVKDIMLNKEETKKENSFEMQKGDQNPQIAAHVISEASSKTTSVLQWAEKGYYTMSNNLVTLENGKQLTVKRQGLYYIYAQVTFCSNREASSQAPFIASLCLKSPGRFERILLRAANTHSSAKPCGQQSIHLGGVFELQPGASVFVNVTDPSQVSHGTGFTSFGLLKL
[3]
  IL-12p70 expression after removal of LPS stimulation: ceased when LPS stimulation was removed
